In the supplement of paper PMC10307832:

How the values were obtained:
Experiment in all cases: relative viability (nuclei count vs DMSO), 5 days (fraction); higher = more cells survive
[1] = compound: CC1=CC=C(C=C1)C(=O)CN2C3=C(CCCC3)SC2=N [Pifithrin_alpha] + COc1cccc2cc(-c3nc([C@H]4CC[C@H](C(=O)O)CC4)n4ncnc(N)c34)[nH]c12 [OSI-027] (partner 0.5 µM)
In short: (§1)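 For relative viability, nuclei counts in treated wells were divided by those in vehicle wells. Lung cancer cell lines had been pin-tool dosed in 1536-well plates the day after seeding and cultured for 5 days, then fixed and stained in one step (final 0.05% Triton X-100, 1% formaldehyde, 1 ug/ml Hoechst) and imaged at 4×. Doses were one drug alone or a fixed anchor-drug dose plus five library-drug doses (not always all listed) in √10 steps, and values are duplicate-plate medians.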

[2] = compound: CNC(=O)c1ccccc1Sc1ccc2c(/C=C/c3ccccn3)n[nH]c2c1 [Axitinib] + NC(=O)Nc1cc(-c2cccc(F)c2)sc1C(=O)N[C@H]1CCCNC1 [AZD7762] (partner 0.2 µM)
In short: as §1

[3] = compound: Nc1nc(Nc2ccc3c(c2)CC[C@@H](N2CCCC2)CC3)nn1-c1cc2c(nn1)-c1ccccc1CCC2 [Bemcentinib] + COc1cccc2cc(-c3nc([C@H]4CC[C@H](C(=O)O)CC4)n4ncnc(N)c34)[nH]c12 [OSI-027] (partner 0.5 µM)
In short: as §1

[4] = compound: Nc1nc(Nc2ccc3c(c2)CC[C@@H](N2CCCC2)CC3)nn1-c1cc2c(nn1)-c1ccccc1CCC2 [Bemcentinib] + N=C(N)NC(=N)NCCc1ccccc1 [Phenformin] (partner 250 µM)
In short: as §1

| Cell Line | relative viability ([1]; first compound 1 µM) | relative viability ([1]; first compound 3.162 µM) | relative viability ([1]; first compound 10 µM) | relative viability ([1]; first compound 31.62 µM) | relative viability ([1]; first compound 100 µM) | relative viability ([2]; first compound 0.005 µM) | relative viability ([2]; first compound 0.01581 µM) | relative viability ([2]; first compound 0.05 µM) | relative viability ([2]; first compound 0.1581 µM) | relative viability ([2]; first compound 0.5 µM) | relative viability ([3]; first compound 0.04 µM) | relative viability ([3]; first compound 0.1265 µM) | relative viability ([3]; first compound 0.4 µM) | relative viability ([3]; first compound 1.265 µM) | relative viability ([3]; first compound 4 µM) | relative viability ([4]; first compound 0.04 µM) | relative viability ([4]; first compound 0.1265 µM) | relative viability ([4]; first compound 0.4 µM) | relative viability ([4]; first compound 1.265 µM) | relative viability ([4]; first compound 4 µM) |
| --- | --- | --- | --- | --- | --- | --- | --- | --- | --- | --- | --- | --- | --- | --- | --- | --- | --- | --- | --- | --- |
| LCLC-103H | 0.521 | 0.504 | 0.437 | 0.411 | 0.531 | 0.843 | 0.752 | 0.816 | 0.836 | 0.674 | 0.479 | 0.5 | 0.452 | 0.422 | 0.448 | 0.366 | 0.255 | 0.332 | 0.289 | 0.35 |
| NCI-H1755 | 0.57 | 0.687 | 0.675 | 0.525 | 0.566 | 0.509 | 0.435 | 0.454 | 0.524 | 0.47 | 0.79 | 0.711 | 0.758 | 0.793 | 0.732 | 0.652 | 0.62 | 0.648 | 0.59 | 0.622 |
| PC-14 | 0.822 | 0.889 | 0.827 | 0.464 | 0.605 | 0.306 | – | 0.346 | 0.382 | 0.413 | 0.84 | 1.08 | 0.938 | 0.953 | 0.81 | 0.458 | 0.704 | 0.648 | 0.581 | 0.465 |
| NCI-H2405 | 0.494 | 0.639 | 0.583 | 0.58 | 0.579 | 0.73 | 0.808 | 1.01 | 0.684 | 0.856 | 0.665 | 0.64 | 0.62 | 0.707 | 0.692 | 0.409 | 0.412 | 0.385 | 0.372 | 0.376 |
| NCI-H1395 | 0.541 | 0.629 | 0.617 | 0.432 | 0.643 | 0.4 | 0.378 | 0.386 | 0.405 | 0.386 | 0.654 | 0.74 | 0.616 | 0.613 | 0.594 | 0.406 | 0.43 | 0.434 | 0.451 | 0.446 |
| NCI-H596 | 0.809 | 0.65 | 0.557 | 0.588 | 0.621 | 1.14 | 0.978 | 1.12 | 1.12 | 0.943 | 0.739 | 0.665 | 0.707 | 0.757 | 0.802 | 0.698 | 0.733 | 0.783 | 0.713 | 0.772 |
